Some test systems named below: A549; COLO 205; HCT-15; MCF7; MDA-N; Malme-3M; OVCAR-3; SK-MEL-28; SNB-19; SR; SW-620; T47D; TK-10; UACC-62; A498; HL-60; K562; LOX IMVI; UACC-257.
Test in all cases: DTP human tumour cell line panel, 48 h

The GI50 is the concentration that inhibits growth by half.

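Protocol summary: plate cells (96-well), add compound at 5 concentrations, incubate 48 h, interpolate endpoints linearly. GI50 is the concentration that inhibits growth by half.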 Active and inactive are the calls of the source. No stated cut-off is given here; in the data, active = GI50 up to about 1.1 µM and inactive = higher. Bounds are passed on as bounds.

In the case of `COc1cc(C2c3cc4c(cc3OC(NCCO)C2C)OCO4)cc(OC)c1O` (stereo not drawn), the GI50 in the experiment with A549 is 10.1 µM (inactive); with COLO 205 it was 21.2 µM (inactive); in the experiment with HCT-15, 3.44 µM; in the experiment on MCF7, 9.29 µM (inactive); in the experiment on MDA-N, 1.61 µM (inactive); in the experiment with Malme-3M it was 6.37 µM (inactive). Also, the GI50 in the experiment on OVCAR-3 was 5.2 µM (inactive); in the experiment on SK-MEL-28, 7.64 µM (inactive); with SNB-19, 29.2 µM (inactive); with SR, 6.12 µM (inactive); with SW-620 it was 5.53 µM (inactive); with T47D, 18.2 µM (inactive). In addition, the values for the GI50 in the experiment with TK-10 and with UACC-62 were 12.8 µM (inactive) and 2.94 µM (inactive), respectively.

For `O=C(C[n+]1ccccc1)N/N=C(\C(=O)NC1=C(Cl)C(=O)c2ccccc2C1=O)c1c(O)c2ccc(O)cc2oc1=O`, the GI50 in the experiment on A498 was 19.9 µM (inactive); in the experiment with A549 it was 3.03 µM (inactive); in the experiment on COLO 205 it was 3.05 µM (inactive); with HCT-15, 2.42 µM; in the experiment with HL-60, 3.43 µM (inactive); in the experiment with K562, 1.91 µM (inactive). The GI50 in the experiment with LOX IMVI is 2.63 µM (inactive); in the experiment on MCF7 it was 3.48 µM (inactive); in the experiment on OVCAR-3 it was 3.37 µM (inactive); in the experiment with SK-MEL-28, 2.94 µM (inactive); in the experiment with SR, 4.19 µM (inactive); in the experiment on SW-620, 3.89 µM (inactive). Besides, the GI50 was 5.56 µM (inactive) in the experiment with T47D, 23.7 µM (inactive) in the experiment with TK-10, 3.03 µM (inactive) in the experiment with UACC-257 and 1.84 µM (inactive) in the experiment with UACC-62.

As to `CCN(CC)CCCNc1nc(=O)[nH]c(C)c1C(=O)Nc1cccc2cc3ccccc3cc12`, the GI50 in the experiment on A549 was > 100 µM (inactive); in the experiment on COLO 205, > 100 µM (inactive); in the experiment on HCT-15 it was over 100 µM; in the experiment on HL-60, > 100 µM (inactive); with K562 it was > 100 µM (inactive); in the experiment with LOX IMVI, > 100 µM (inactive). In addition, the GI50 in the experiment on MCF7, with MDA-N, with Malme-3M, with OVCAR-3, in the experiment on SK-MEL-28 and with SNB-19 was > 100 µM (inactive) in each case. Moreover, the GI50 in the experiment with SW-620, in the experiment with T47D, in the experiment on TK-10, with UACC-257 and in the experiment on UACC-62 was > 100 µM (inactive) throughout.

With `CC(C)C(N)C(=O)NC(CCC(=O)NCCCCC(N)C(=O)NCCCNc1ccc([N+](=O)[O-])c2[nH]c3ccccc3c(=O)c12)C(N)=O` (stereo not drawn), the GI50 with A498 is 59 µM (inactive); in the experiment on A549, 27.3 µM (inactive); in the experiment on COLO 205, 68.9 µM (inactive); in the experiment on HCT-15, 41.2 µM; in the experiment with K562, > 100 µM (inactive); with LOX IMVI, 21 µM (inactive). In addition, the GI50 is > 100 µM (inactive) with OVCAR-3; > 100 µM (inactive) in the experiment on SK-MEL-28; 35.2 µM (inactive) with SNB-19; 41.6 µM (inactive) with SW-620; > 100 µM (inactive) in the experiment with T47D; > 100 µM (inactive) with TK-10. Further, the GI50 in the experiment on UACC-257 is > 100 µM (inactive); in the experiment on UACC-62, 25.2 µM (inactive).

Take `O=C(NNc1ccc([N+](=O)[O-])cc1[N+](=O)[O-])/C(O)=C\C(=O)c1ccccc1`: the GI50 in the experiment with A498 is 28.9 µM (inactive); in the experiment on A549, 17.6 µM (inactive); in the experiment on COLO 205, 18.4 µM (inactive); in the experiment on HCT-15, 16.5 µM; in the experiment on K562 it was 25.1 µM (inactive); in the experiment on LOX IMVI, 24.5 µM (inactive). Further, the GI50 in the experiment on MCF7 is 29.4 µM (inactive); in the experiment with MDA-N it was 27.9 µM (inactive); in the experiment with Malme-3M, 30 µM (inactive); in the experiment with SK-MEL-28 it was 23.5 µM (inactive); in the experiment with SNB-19, 25.4 µM (inactive); in the experiment with SR, 19.9 µM (inactive). The GI50 is 16.6 µM (inactive) with SW-620; 15.6 µM (inactive) in the experiment with T47D; 22.4 µM (inactive) with TK-10; 29 µM (inactive) in the experiment with UACC-257; 15.5 µM (inactive) with UACC-62.

These data come from ChEMBL document CHEMBL1201862, “PubChem BioAssay data set” (2004).
